Where a name gives a salt, the structure may show the parent alone.
Each compound was assayed against T1, human full-length MKNK1 (Homo sapiens, UniProt Q9BUB5, T385D) (assay: MKNK1 kinase high ATP assay (TR-FRET)). Details: high ATP (2 mM), 15 min preincubation with enzyme, GST-MKNK1 (T344D).
T1 construct: purchased Carna Biosciences 02-145; host or cells: insect cells, baculovirus expression system
Assay type: biochemical
Method: MKNK1-inhibitory activity at high ATP of compounds of the present invention after their preincubation with MKNK1 was quantified employing the TR-FRET-based MKNK1 high ATP assay as described in the following paragraphs.
A recombinant fusion protein of Glutathione-S-Transferase (GST, N-terminally) and human full-length MKNK1 (amino acids 1-424 and T344D of accession number BAA 19885.1), expressed in insect cells using baculovirus expression system and purified via glutathione sepharose affinity chromatography, was purchased from Carna Biosciences (product no 02-145) and used as enzyme. As substrate for the kinase reaction the biotinylated peptide biotin-Ahx-IKKRKLTRRKSLKG (C-terminus in amide form) was used, which can be purchased e.g. from the company Biosyntan (Berlin-Buch, Germany).
For the assay 50 nL of a 100fold concentrated solution of the test compound in DMSO was pipetted into a black low volume 384well microtiter plate (Greiner Bio-One, Frickenhausen, Germany), 2 μL of a solution of MKNK1 in aqueous assay buffer [50 mM HEPES pH 7.5, 5 mM MgCl2, 1.0 mM dithiothreitol, 0.005% (v/v) Nonidet-P40 (Sigma)] was added and the mixture was incubated for 15 min at 22° C. to allow pre-binding of the test compounds to the enzyme before the start of the kinase reaction. Then the kinase reaction was started by the addition of 3 μL of a solution of adenosine-tri-phosphate (ATP, 3.3 mM=>final conc. in the 5 μL assay volume is 2 mM) and substrate (0.1 μM=>final conc. in the 5 μL assay volume is 0.06 μM) in assay buffer and the resulting mixture was incubated for a reaction time of 30 min at 22° C. The concentration of MKNK1 was adjusted depending of the activity of the enzyme lot and was chosen appropriate to have the assay in the linear range, typical concentrations were in the range of 0.003 μg/mL. The reaction was stopped by the addition of 5 μL of a solution of TR-FRET detection reagents (5 nM streptavidine-XL665 [Cisbio Bioassays, Codolet, France] and 1 nM anti-ribosomal protein […] (pSer236)-antibody from Invitrogen [#44921G] and 1 nM LANCE EU-W1024 labeled ProteinG [Perkin-Elmer, product no. AD0071]) in an aqueous EDTA-solution (100 mM EDTA, 0.1% (w/v) bovine serum albumin in 50 mM HEPES pH 7.5).
The resulting mixture was incubated for 1 h at 22° C. to allow the formation of complex between the phosphorylated biotinylated peptide and the detection reagents. Subsequently the amount of phosphorylated substrate was evaluated by measurement of the resonance energy transfer from the Eu-chelate to the streptavidine-XL. Therefore, the fluorescence emissions at 620 nm and 665 nm after excitation at 350 nm were measured in a TR-FRET reader, e.g. a Rubystar (BMG Labtechnologies, Offenburg, Germany) or a Viewlux (Perkin-Elmer). The ratio of the emissions at 665 nm and at […] was taken as the measure for the amount of phosphorylated substrate. The data were normalised (enzyme reaction without inhibitor=0% inhibition, all other assay components but no enzyme=100% inhibition).

T1 sequence (Q9BUB5 1-424 isoform Q9BUB5-2 T344D): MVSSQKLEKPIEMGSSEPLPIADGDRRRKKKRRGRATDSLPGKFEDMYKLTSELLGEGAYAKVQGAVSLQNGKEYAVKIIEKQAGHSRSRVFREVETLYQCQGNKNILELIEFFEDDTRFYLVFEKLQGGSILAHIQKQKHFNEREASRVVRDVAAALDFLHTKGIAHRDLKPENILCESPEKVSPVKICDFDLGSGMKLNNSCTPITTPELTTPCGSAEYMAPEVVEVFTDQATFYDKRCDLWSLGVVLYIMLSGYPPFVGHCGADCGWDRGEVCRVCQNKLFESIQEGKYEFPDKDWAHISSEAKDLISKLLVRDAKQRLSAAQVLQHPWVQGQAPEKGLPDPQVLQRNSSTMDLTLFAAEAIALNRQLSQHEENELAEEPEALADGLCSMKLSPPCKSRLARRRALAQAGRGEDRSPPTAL

SMILES | IC50 [nM]
CS(=O)(=O)CCCNC(=O)C1CCc2[nH]c3ncnc(Nc4ccccc4N4CCOCC4)c3c2C1 (racemic) [Example 30, (RS)—N-[3-(Methylsulfonyl)propyl]-4-{[2-(morpholin-4-yl)phenyl]amino}-6,7,8,9-tetrahydro-5H-pyrimido[4,5-b]indole-6-carboxamide] | 52
CS(=O)(=O)CCCNC(=O)C1CCc2[nH]c3ncnc(Nc4cccc5c4CCCC5)c3c2C1 (racemic) [Example 58, (RS)—N-[3-(Methylsulfonyl)propyl]-4-(5,6,7,8-tetrahydronaphthalen-1-ylamino)-6,7,8,9-tetrahydro-5H-pyrimido[4,5-b]indole-6-carboxamide] | 1170
COc1ccc(C(F)(F)F)cc1Nc1ncnc2[nH]c3c(c12)CC(C(=O)N1CCN(C)CC1)CC3 (racemic) [Example 215, (RS)-(4-{[2-Methoxy-5-(trifluoromethyl)phenyl]amino}-6,7,8,9-tetrahydro-5H-pyrimido[4,5-b]indol-6-yl)(4-methylpiperazin-1-yl)methanone] | 93
COc1cc(Nc2ncnc3[nH]c4c(c23)CC(C(=O)NCCCS(C)(=O)=O)CC4)ccc1F (racemic) [Example 34, (RS)-4-[(4-Fluoro-3-methoxyphenyl)amino]-N-[3-(methylsulfonyl)propyl]-6,7,8,9-tetrahydro-5H-pyrimido[4,5-b]indole-6-carboxamide] | 306
CS(=O)(=O)CCCNC(=O)C1CCc2[nH]c3ncnc(Nc4ccc5[nH]ncc5c4)c3c2C1 (racemic) [Example 14, (RS)-4-(1H-Indazol-5-ylamino)-N-[3-(methylsulfonyl)propyl]-6,7,8,9-tetrahydro-5H-pyrimido[4,5-b]indole-6-carboxamide] | 8
CS(=O)(=O)CCCNC(=O)C1CCc2[nH]c3ncnc(Nc4ccc(S(N)(=O)=O)cc4)c3c2C1 (racemic) [Example 48, (RS)—N-[3-(Methylsulfonyl)propyl]-4-[(4-sulfamoylphenyl)amino]-6,7,8,9-tetrahydro-5H-pyrimido[4,5-b]indole-6-carboxamide] | 2840
CNS(=O)(=O)c1ccc(Nc2ncnc3[nH]c4c(c23)CC(C(=O)NCCCS(C)(=O)=O)CC4)cc1 (racemic) [Example 41, (RS)-4-{[4-(Methylsulfamoyl)phenyl]amino}-N-[3-(methylsulfonyl)propyl]-6,7,8,9-tetrahydro-5H-pyrimido[4,5-b]indole-6-carboxamide] | 9330
CS(=O)(=O)CCCNC(=O)C1CCc2[nH]c3ncnc(Nc4ccc5c(c4)CS(=O)(=O)C5)c3c2C1 (racemic) [Example 40, (RS)-4-[(2,2-Dioxido-1,3-dihydro-2-benzothiophen-5-yl)amino]-N-[3-(methylsulfonyl)propyl]-6,7,8,9-tetrahydro-5H-pyrimido[4,5-b]indole-6-carboxamide] | 1160
CS(=O)(=O)CCCNC(=O)C1CCc2[nH]c3ncnc(Nc4ccc5c(c4)C(=O)OC5)c3c2C1 (racemic) [Example 46, (RS)—N-[3-(Methylsulfonyl)propyl]-4-[(3-oxo-1,3-dihydro-2-benzofuran-5-yl)amino]-6,7,8,9-tetrahydro-5H-pyrimido[4,5-b]indole-6-carboxamide] | 2240
CS(=O)(=O)CCCNC(=O)C1CCc2[nH]c3ncnc(Nc4ccc(C(=O)N5CCCC5)cc4)c3c2C1 (racemic) [Example 38, (RS)—N-[3-(Methylsulfonyl)propyl]-4-{[4-(pyrrolidin-1-ylcarbonyl)phenyl]amino}-6,7,8,9-tetrahydro-5H-pyrimido[4,5-b]indole-6-carboxamide] | 10600
CS(=O)(=O)CCCNC(=O)C1CCc2[nH]c3ncnc(Nc4ccc(OC(F)F)cc4)c3c2C1 (racemic) [Example 31, (RS)-4-{[4-(Difluoromethoxy)phenyl]amino}-N-[3-(methylsulfonyl)propyl]-6,7,8,9-tetrahydro-5H-pyrimido[4,5-b]indole-6-carboxamide] | 2750
COc1cc2[nH]c(=O)[nH]c2cc1Nc1ncnc2[nH]c3c(c12)CC(C(=O)NCCCS(C)(=O)=O)CC3 (racemic) [Example 164, (RS)-4-[(6-Methoxy-2-oxo-2,3-dihydro-1H-benzimidazol-5-yl)amino]-N-[3-(methylsulfonyl)propyl]-6,7,8,9-tetrahydro-5H-pyrimido[4,5-b]indole-6-carboxamide] | 225

Now from value to compound:

IC50 [nM] | SMILES
89 | c1ccc(OC2CCOCC2)c(Nc2ncnc3[nH]c4c(c23)CCCC4)c1 [Example 130, N-[2-(tetrahydro-2H-pyran-4-yloxy)phenyl]-6,7,8,9-tetrahydro-5H-pyrimido[4,5-b]indol-4-amine]
4050 | COc1cc(NS(C)(=O)=O)ccc1Nc1ncnc2[nH]c3c(c12)CCCC3 [Example 129]
2940 | CC(C)Oc1cc(F)ccc1Nc1ncnc2[nH]c3c(c12)CN(Cc1ccccc1)CC3 [Example 8, 6-Benzyl-N-(4-fluoro-2-isopropoxyphenyl)-6,7,8,9-tetrahydro-5H-pyrido[3′,4′:4,5]pyrrolo[2,3-d]pyrimidin-4-amine]
288 | CC(C)Oc1ccc(Cl)cc1Nc1ncnc2[nH]c3c(c12)CC(C(=O)O)CC3 (racemic) [Example 234, (RS)-4-{[5-Chloro-2-(propan-2-yloxy)phenyl]amino}-6,7,8,9-tetrahydro-5H-pyrimido[4,5-b]indole-6-carboxylic acid]
26 | COc1cc2[nH]ncc2cc1Nc1ncnc2[nH]c3c(c12)CC(C(=O)O)CC3 (racemic) [Example 184, (RS)-4-[(6-Methoxy-1H-indazol-5-yl)amino]-6,7,8,9-tetrahydro-5H-pyrimido[4,5-b]indole-6-carboxylic acid hydrochloride (1:1)]
123 | O=C(O)CNC(=O)C1CCc2[nH]c3ncnc(Nc4ccc(F)cc4OCCO)c3c2C1 (racemic) [Example 187, (RS)—N-[(4-{[4-Fluoro-2-(2-hydroxyethoxy)phenyl]amino}-6,7,8,9-tetrahydro-5H-pyrimido[4,5-b]indol-6-yl)carbonyl]glycine]
339 | COCC1(OC)CCc2[nH]c3ncnc(Nc4cc(Cl)c(Cl)cc4OC)c3c2C1 (racemic) [Example 140]
≥ 20000 | COc1ccc(Cl)cc1Nc1ncnc2[nH]c3c(c12)CC(F)(F)CC3 [Example 144]
2750 | CC(C)NC(=O)C1CCc2[nH]c3ncnc(N4CCc5ccccc54)c3c2C1 (racemic) [Example 208, (RS)-4-(2,3-Dihydro-1H-indol-1-yl)-N-(propan-2-yl)-6,7,8,9-tetrahydro-5H-pyrimido[4,5-b]indole-6-carboxamide]
9660 | CC(C)Oc1ccc(Nc2ncnc3[nH]c4c(c23)CC(C(=O)NCCCS(C)(=O)=O)CC4)cc1 (racemic) [Example 35, (RS)—N-[3-(Methylsulfonyl)propyl]-4-{[4-(propan-2-yloxy)phenyl]amino}-6,7,8,9-tetrahydro-5H-pyrimido[4,5-b]indole-6-carboxamide]
149 | O=C(O)C1CCc2[nH]c3ncnc(Nc4ccc(Cl)c(Cl)c4)c3c2C1 (racemic) [Example 233, (RS)-4-[(3,4-Dichlorophenyl)amino]-6,7,8,9-tetrahydro-5H-pyrimido[4,5-b]indole-6-carboxylic acid]
706 | CCOC(=O)C1CCc2[nH]c3ncnc(Nc4ccc(F)cc4OC(C)C)c3c2C1 (racemic) [Example 174, (RS)-Ethyl 4-{[4-fluoro-2-(propan-2-yloxy)phenyl]amino}-6,7,8,9-tetrahydro-5H-pyrimido[4,5-b]indole-6-carboxylate]
